This passage reports enrich.exp.med results from article PMC10176470, “Engaging a Non-catalytic Cysteine Residue Drives Potent and Selective Inhibition of Caspase-6” (Journal of the American Chemical Society, 2023).

The assay deals with proteins of HEK293T cells transiently overexpressing caspase-6 (Homo sapiens, UniProt P49591). It counts as cell-based. The following applies: exp_ref Probe; protein SARS (P49591); analysis C6.
proteins of HEK293T cells transiently overexpressing caspase-6, sequence (P49591 whole entry, looked up): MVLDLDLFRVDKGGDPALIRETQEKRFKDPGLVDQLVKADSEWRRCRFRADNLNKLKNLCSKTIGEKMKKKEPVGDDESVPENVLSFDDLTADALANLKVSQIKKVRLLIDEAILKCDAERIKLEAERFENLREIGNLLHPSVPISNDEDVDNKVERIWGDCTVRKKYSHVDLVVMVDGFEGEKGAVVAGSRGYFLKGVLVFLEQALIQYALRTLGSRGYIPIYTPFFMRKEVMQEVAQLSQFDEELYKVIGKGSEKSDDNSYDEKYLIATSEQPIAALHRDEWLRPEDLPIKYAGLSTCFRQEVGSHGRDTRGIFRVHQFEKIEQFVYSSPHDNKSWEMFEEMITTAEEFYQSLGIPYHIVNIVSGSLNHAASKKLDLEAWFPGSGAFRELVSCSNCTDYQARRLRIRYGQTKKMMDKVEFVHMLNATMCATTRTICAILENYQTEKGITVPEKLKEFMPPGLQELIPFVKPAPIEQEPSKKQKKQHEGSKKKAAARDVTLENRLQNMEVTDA

`C#CCOc1ccc([C@@H]2C[C@@H](C(=O)Nc3ccc(OC(F)(F)F)cc3)CN(S(=O)(=O)C=C)C2)cc1` (relative stereo) [13-t] had an enrich.exp.med of 0.8697.
